Consider 23 compounds from paper PMC5678585, “Screening a protein kinase inhibitor library against Plasmodium falciparum” (Malaria Journal, 2017).

For orientation: EC50 means the concentration that produces a half-maximal response.

Series [1] concerns normal diploid human fibroblasts (MRC-5 pd30). Nature of the series: in vitro. It counts as cell-based. The protocol:
(§1) Cells were plated and incubated overnight to allow them to adhere as monolayers. A working stock of each test compound was transferred to an intermediate 384-well plate and pre-diluted with minimum essential media (MEM). The pre-diluted stocks were then transferred onto the cell monolayers, and the plates were incubated for 68 h. Resazurin, to a final concentration of 50 μM was added to each well, after which plates were incubated for a further 3 h and measured for fluorescence (λ ex = 528 nm, λ em = 590 nm).
(§2) All data were processed using IDBS ActivityBase. […] The formula used to calculate Z’ is 1-3×(StDev_high+StDev_low)/ABS(Mean_high-Mean_low) .
(§3) All EC50 Curve fitting was undertaken using XLFit version 4.2 using Model 205 with the following 4 parametric equation: y=A+B-A/1+[…], where A = % inhibition at bottom, B = % inhibition at top, C = EC50, D = slope, x = inhibitor concentration and y = % inhibition.

The subject of series [2] is Plasmodium falciparum 3D7. Description: microbe, parasite or virus in culture. On the procedure: Growth inhibition was quantified using a fluorescence assay utilizing the binding of SYBR Green I to double stranded DNA, which emits a fluorescent signal at 528 nm after excitation at 485 nm. The SYBR Green assay system was adapted to maximize robustness and to align with available automation systems. The Prestwick Library then used as a pilot screen to validate the performance of the optimized assay. […] Single point screens were carried out, and the potency of compounds of interest was determined in duplicate on two independent occasions. A 96-well [^3H]-Hypoxanthine incorporation assay was also developed as a secondary assay in order to validate key compounds from each hit series in an orthogonal platform.
as §2
Two independent assays were run.

Another series can be described thus: in vitro. Format: cell-based. Particulars: human, MRC-5 pd30 normal diploid fibroblasts (monolayers); Table 8, MMV03 SAR; read-out: MRC5 EC50. The protocol: as §1, §2, §3
In a further series the test system is Plasmodium falciparum. Description: [3H]-Hypoxanthine incorporation assay (orthogonal, radiometric). It counts as cell-based. The protocol: Cultures of 3D7, a P. falciparum chloriquine sensitive reference strain, were maintained in a 5% suspension of A+ human red blood cells (obtained from East of Scotland Blood Transfusion Service, Ninewells Hospital, Dundee, UK) cultured in RPMI 1640 medium (pH 7.3) supplemented with 0.5% Albumax II (Gibco Life Technologies, San Diego, CA, USA), 12 mM sodium bicarbonate, 0.2 mM hypoxanthine, and 20 mg/l gentamicin at 37 °C, in a humidified atmosphere of 1% O2, 3% CO2 with a balance of nitrogen. Growth inhibition was quantified using a fluorescence assay utilizing the binding of SYBR Green I to double stranded DNA, which emits a fluorescent signal at 528 nm after excitation at 485 nm. The SYBR Green assay system was adapted to maximize robustness and to align with available automation systems. The Prestwick Library then used as a pilot screen to validate the performance of the optimized assay. […] Single point screens were carried out, and the potency of compounds of interest was determined in duplicate on two independent occasions. A 96-well [^3H]-Hypoxanthine incorporation assay was also developed as a secondary assay in order to validate key compounds from each hit series in an orthogonal platform.
The traditionally used [^3H]-hypoxanthine incorporation assay is labour intensive, low throughput and requires the use of radio-labelled hypoxanthine.

The subject of series [3] is normal diploid human fibroblasts (MRC-5 pd30). The conditions noted are these: read-out: MRC5 EC50, cited from earlier work.
The test system of series [4] is Plasmodium falciparum 3D7. The conditions noted are these: Table 7, MMV04 SAR; data reported previously ref 24, 25; read-out: P. fal. EC50; cited from earlier work.
Setting [5] is: Table 8, MMV03 SAR, read-out: MRC5 EC50.
The mark [6] stands for this setting: read-out: P. fal. EC50, Table 8, MMV03 SAR.
Setting [7] is: Plasmodium falciparum, 3D7, read-out: P. fal. EC50.
Setting [8] is: Table 7, MMV04 SAR, read-out: MRC5 EC50.
Where [9] appears, read: read-out: P. fal. EC50, Table 7, MMV04 SAR.
Where [10] appears, read: C.I. 95%, n = 2, read-out: EC50 Radiometric ([3H]-hypoxanthine).
Setting [11] is: Table 4, primary hits of kinase library, read-out: EC50 MRC5 cells.
[12] abbreviates: read-out: EC50 Fluorescent (SYBR Green), C.I. 95%, n = 4.
[13] abbreviates: read-out: EC50 P. falciparum, Table 4, primary hits of kinase library.
[14] abbreviates: Table 6, MMV02 SAR, read-out: MRC5 EC50.
Where [15] appears, read: read-out: P. fal. EC50, Table 6, MMV02 SAR.

Each structure is given as a SMILES string. Read-outs that look alike come from different tables or passages of the source.

With `Cc1cc(NC(=O)c2cn(-c3ccccc3)nc2-c2cccs2)[nH]n1` [Compound A0012], the EC50 came out at 24 µM in series [1] (setting [5]) and 6 µM in series [2] (setting [6]). Also, the “LLE (ligand-lipophilicity efficiency)” value in series [2] (Table 8, MMV03 SAR) came to 1.9.

Regarding `Cn1cc(C(=O)Nc2cccnc2)c(-c2cccs2)n1` [Compound A0044], the EC50 at 68 h in “in vitro” is over 50 µM. In series [2] (setting [7]), the EC50 is over 50 µM. Besides, the “LLE (ligand-lipophilicity efficiency)” value in series [2] (Table 8, MMV03 SAR) was 2.

For `COc1cc(NC(=O)c2cc(-c3cccnc3)nc3ccc(Br)cc23)cc(OC)c1` [Compound A0410], the concentration for a half-maximal effect (EC50) in series [1] (setting [8]) is over 50 µM; in series [2] (setting [9]) it was 0.74 µM.

`O=C(Nc1ccncc1)c1cn(-c2ccccc2)nc1-c1cccs1` [Compound A0033]: the EC50 in series [1] (setting [5]) was determined as 39 µM; in series [2] (setting [6]), 0.7 µM. The “LLE (ligand-lipophilicity efficiency)” value in series [2] (Table 8, MMV03 SAR) worked out at 2.9.

Take `O=C(Nc1cccnc1)c1cn(-c2ccccc2)nc1-c1cccs1` [Compound A0003]: the concentration for a half-maximal effect (EC50) is 0.15 ± 0.25 µM in the series with Plasmodium falciparum (setting [10]); over 15 µM in series [1] (setting [11]); over 50 µM in series [1] (setting [5]); 0.59 ± 0.12 µM in series [2] (setting [12]); 0.6 µM in series [2] (setting [13]); 0.3 µM in series [2] (setting [6]). Also, the “LLE (ligand-lipophilicity efficiency)” value in series [2] (Table 8, MMV03 SAR) amounted to 3.2.

Consider `CC(C)CCNC(=O)c1cn(-c2ccccc2)nc1-c1cccs1` [Compound A0036], for which the EC50 worked out at 50 µM in series [1] (setting [5]) and 18 µM in series [2] (setting [6]). In addition, the “LLE (ligand-lipophilicity efficiency)” value in series [2] (Table 8, MMV03 SAR) was 1.1.

Turning to `OC(c1cc(C(F)(F)F)nc2c(C(F)(F)F)cccc12)C1CCCCN1` (stereo not shown) [Mefloquine, reference compound], the 50% effective concentration (EC50) with Plasmodium falciparum (Plasmodium falciparum, [3H]-hypoxanthine incorporation assay, read-out: EC50) was 0.007 to 0.01 µM; in series [2] (Plasmodium falciparum, 3D7), 0.048 ± 0.004 µM.

On to `O=C(Nc1cccnc1)c1cc(-c2cccnc2)nc2ccc(Cl)cc12` [Compound A0421], for which the EC50 in series [1] (setting [8]) was over 50 µM; in series [2] (setting [9]) it was 0.38 µM.

`Cc1ccc(-c2cc(C(=O)Nc3cccnc3)c3cc(Br)ccc3n2)cc1` [Compound A0031]: the EC50 in series [3] (Table 7, MMV04 SAR, data reported previously ref 24, 25) was 20 µM; in series [4], 0.12 µM. The “activity against P. falciparum relative to A0004” value in series [2] (MMV04 series) is listed as “fivefold more active”.

Turning to `CC(C)c1nn(-c2ccccc2)cc1C(=O)Nc1cccnc1` [Compound A0039], the concentration giving a half-maximal response (EC50) at 68 h in “in vitro” came out at 50 µM. In addition, the EC50 in series [2] (setting [7]) was determined as 21 µM. Besides, the “LLE (ligand-lipophilicity efficiency)” value in series [2] (Table 8, MMV03 SAR) amounted to 2.1.

For `CC(C)(C)n1cc(C(=O)Nc2nc3ccccc3[nH]2)c(-c2cccnc2)n1` [Compound A0043], the EC50 at 68 h in “in vitro” was over 50 µM. In series [2] (setting [7]), the concentration for a half-maximal effect (EC50) came out at 14 µM. Besides, in series [2] (Table 8, MMV03 SAR), the “LLE (ligand-lipophilicity efficiency)” value worked out at 1.2.

Consider `N#Cc1ccc(-n2cc(C(=O)Nc3nc4ccccc4[nH]3)c(-c3cccnc3)n2)cc1` [Compound A0041], for which the concentration giving a half-maximal response (EC50) in series [1] (setting [5]) came to 15 µM; in series [2] (setting [6]) it was 0.4 µM. Also, the “LLE (ligand-lipophilicity efficiency)” value in series [2] (Table 8, MMV03 SAR) was determined as 3.2.

For the compound `O=C(Nc1nc2ccccc2[nH]1)c1cn(-c2ccc(F)cc2)nc1-c1cccnc1` [Compound A0042], the EC50 turned out to be 14 µM in series [1] (setting [5]) and 0.6 µM in series [2] (setting [6]). The “LLE (ligand-lipophilicity efficiency)” value in series [2] (Table 8, MMV03 SAR) came out at 2.8.

Consider `Fc1ccccc1-c1cc(Nc2ccncc2)nc(-c2ccccc2)n1` [Compound A0021], for which the 50% effective concentration (EC50) in series [3] (Table 6, MMV02 SAR, data reported previously ref 23) is over 50 µM.

`FC(F)(F)Oc1ccc(Nc2cc(-c3cccc(C(F)(F)F)c3)nc(-c3ccccc3)n2)cc1` [Compound A0022]: the values for the concentration for a half-maximal effect (EC50) in series [1] (setting [14]) and in series [2] (setting [15]) were 11 µM and 2.3 µM, respectively. The “activity against P. falciparum relative to A0002” value in series [2] (MMV02 series) is recorded as “tenfold less active”.

`O=C(Nc1nc2ccccc2[nH]1)c1cn(-c2ccccc2)nc1-c1cccnc1` [Compound A0032]: the EC50 in series [1] (setting [5]) is 21 µM; in series [2] (setting [6]), 0.5 µM. In series [2] (Table 8, MMV03 SAR), the “LLE (ligand-lipophilicity efficiency)” value was 2.9.

For `Fc1ccc(-c2cc(Nc3ccncc3)nc(-c3ccccc3)n2)cc1` [Compound A0002], the EC50 with Plasmodium falciparum (setting [10]) is 0.06 ± 0.07 µM; in series [1] (setting [11]), 6 µM; in series [1] (setting [14]) it was 6 µM; in series [2] (setting [12]) it was 0.23 ± 0.04 µM; in series [2] (setting [13]), 0.2 µM; in series [2] (setting [15]), 0.2 µM.

With `O=C(Nc1cccnc1)c1cc(-c2cccnc2)nc2ccc(Br)cc12` [Compound A0004], the EC50 was 0.41 ± 0.47 µM in the series with Plasmodium falciparum (setting [10]); over 15 µM in series [1] (setting [11]); over 15 µM in series [1] (setting [8]); 0.7 ± 0.07 µM in series [2] (setting [12]); 0.7 µM in series [2] (setting [13]); 0.7 µM in series [2] (setting [9]).

`Cc1nn(-c2ccccc2)cc1C(=O)Nc1cccnc1` [Compound A0040]: the EC50 at 68 h in the series “in vitro” came out at 50 µM. Also, the 50% effective concentration (EC50) in series [2] (setting [7]) is 10 µM. In series [2] (Table 8, MMV03 SAR), the “LLE (ligand-lipophilicity efficiency)” value came to 2.8.

Take `CCN(CC)CCNC(=O)c1cn(-c2ccccc2)nc1-c1cccs1` [Compound A0037]: the concentration for a half-maximal effect (EC50) in series [1] (setting [5]) was found to be 18 µM; in series [2] (setting [6]), 13 µM. Besides, the “LLE (ligand-lipophilicity efficiency)” value in series [2] (Table 8, MMV03 SAR) was 2.7.

For `CCOC(=O)c1ccc(NC(=O)c2cc(-c3cccnc3)nc3ccc(Cl)cc23)cc1` [Compound A0024], the figures for the EC50 in series [1] (setting [8]) and in series [2] (setting [9]) were 18 µM and 0.2 µM, respectively.

Regarding `O=C(Nc1nc2ccccc2[nH]1)c1cn(-c2ccccc2)nc1-c1cccs1` [Compound A0034], the EC50 at 68 h in the series “in vitro” worked out at 13 µM. Further, the EC50 in series [2] (setting [7]) was determined as 0.8 µM. Also, the “LLE (ligand-lipophilicity efficiency)” value in series [2] (Table 8, MMV03 SAR) was 2.

For the compound `O=C(Nc1cccnc1)c1cn(-c2ccccc2)nc1-c1cccnc1` [Compound A0038], the half-maximal effective concentration (EC50) in series [1] (setting [5]) worked out at 18 µM; in series [2] (setting [6]) it was 2 µM. The “LLE (ligand-lipophilicity efficiency)” value in series [2] (Table 8, MMV03 SAR) came out at 3.2.
